Measurements: patent US20260091020A1, “TREATMENT OF ACUTE CANNABINOID OVERDOSE” (Anebulo Pharmaceuticals, Inc., priority 2022, published 2026)
“Also recorded” adds a separate entry of the source.

How the values were obtained:
[1] = Safety/tolerability in the phase 2 THC challenge study (50 and 100 mg Compound 1); settings: for QTcF, mean increase from baseline: 3 hours post dose, 3.1 ms in placebo group
[2] = system: central nervous system effects of THC; experiment: Phase 2 randomized, double-blind, placebo-controlled THC challenge study, PD endpoints (10.5 mg THC + 50 or 100 mg Compound 1); format: in vivo, human; settings: for Proportion of subjects reporting feeling high: score of at least 20/100 on VAS feeling high scale
[3] = 50 mg Compound 1 group (20 per arm)
[4] = 100 mg Compound 1 group (20 per arm)
[5] = 10.5 mg THC + 50 or 100 mg ANEB-001, p<0.05, unpaired t-test
[6] = 10.5 mg THC + 50 or 100 mg Compound 1 vs THC alone
[7] = 10.5 mg THC + 50 or 100 mg Compound 1 vs THC alone, not statistically significant overall
[8] = 10.5 mg THC + 50 or 100 mg Compound 1 vs THC alone, overall p<0.01

## CC(C)(C)NC(=O)N1CC(O[C@H](c2ccc(Cl)cc2)c2ccccc2C(F)(F)F)C1 [Compound 1, (R)—N-(tert-butyl)-3-((4-chlorophenyl)(2-(trifluoromethyl)phenyl)methoxy)azetidine-1-carboxamide]
[1]; 10.5 mg THC + 50 or 100 mg Compound 1 vs THC/placebo
  VAS nausea: No significant difference overall between treatment groups
[1]; [3]
  Depressed mood, number of subjects: 1 subject
  Feeling hot, number of subjects: 6 subjects
  Hyperhidrosis, number of subjects: 6 subjects
  Nausea, number of subjects: 13 subjects
  Vomiting, number of subjects: 1 subject
[1]; 50 mg Compound 1 group
  QTcF, mean increase from baseline: 7.9 ms
[1]; 50 mg and 100 mg Compound 1 group, placebo group up to ~6 bpm
  Heart rate, mean increase following dosing (up to): 3-4 bpm
[1]; [4]
  Depressed mood, number of subjects: 2 subjects
  Feeling hot, number of subjects: 4 subjects
  Hyperhidrosis, number of subjects: 7 subjects
  Nausea, number of subjects: 8 subjects
  Vomiting, number of subjects: 6 subjects
[1]; 100 mg Compound 1 group
  QTcF, mean increase from baseline: 9.9 ms
[1]; 50 and 100 mg Compound 1 groups, 24 h post dose, 1.4 mol/L in placebo group
  Increase in total bilirubin compared to baseline: 5
[1]; 50 and 100 mg Compound 1 with 10.5 mg THC
  Severity of adverse events: mild and transient except in the case of one subject in the 50 mg Compound 1 group who experienced moderate nausea and vomiting; also recorded: transient and of mild severity, except one case of vomiting of moderate severity in the 50 mg Compound 1 treatment group
[1]; one subject, 100 mg Compound 1 group
  AESI: systolic blood pressure increase compared to baseline: > 30 mmHg
[1]; single doses of 50 and 100 mg Compound 1
  Overall safety and tolerability: safe and well tolerated by most subjects
[2]; 10.5 mg THC + 50 mg Compound 1
  Proportion of subjects reporting feeling high: 10%
[2]; 10.5 mg THC + 50 mg or 100 mg Compound 1, p<0.01 vs THC alone
  Responder Rate for Reduction in Feeling High: 60%
[2]; 10.5 mg THC + 100 mg Compound 1
  Proportion of subjects reporting feeling high: 30%
[2]; [5]
  Maximum change from baseline in body sway: significant reduction in the maximum change from baseline for body sway
  Maximum change from baseline in heart rate: significant reduction in the maximum change from baseline for heart rate
[2]; [6]
  VAS calmness: no overall significant difference between the treatment groups
  VAS internal perception: no significant differences between treatments
  VAS mood: no significant differences between treatments
[2]; [7]
  Heart rate: trend towards normalization of heart rate; also recorded: trend to normalization of heart rate
  THC-induced body sway: trend towards reduced body sway; also recorded: trended to improvement
[2]; 10.5 mg THC + 50 or 100 mg Compound 1 vs THC alone, overall p<0.0001
  VAS feeling high, time course: highly significant reduction in feeling high; also recorded: Highly significant and sustained improvement
[2]; [8]
  VAS alertness: significantly inhibited the reduction in alertness; also recorded: significant improvement in alertness
  VAS external perception: significantly inhibited the change in perception; also recorded: Significant improvement at both dose levels
